Data published in patent US20240158393A1, “PYRIDONE COMPOUNDS AND METHODS OF USE” (Exelixis, Inc., priority 2021, published 2024).
Structures can show the parent of a compound that is named as a salt.

Experiments:
Human Axl = molecular target: T1, Human Axl (Homo sapiens, UniProt P30530); experiment: Human AXL kinase assay (33P radiometric / HTRF KinEase); assay type: biochemical; settings: protocols of Examples A-1 and/or A-2
T1 construct: Human AXL (residues 464-885)
T1 sequence (P30530 1-894 Q764R): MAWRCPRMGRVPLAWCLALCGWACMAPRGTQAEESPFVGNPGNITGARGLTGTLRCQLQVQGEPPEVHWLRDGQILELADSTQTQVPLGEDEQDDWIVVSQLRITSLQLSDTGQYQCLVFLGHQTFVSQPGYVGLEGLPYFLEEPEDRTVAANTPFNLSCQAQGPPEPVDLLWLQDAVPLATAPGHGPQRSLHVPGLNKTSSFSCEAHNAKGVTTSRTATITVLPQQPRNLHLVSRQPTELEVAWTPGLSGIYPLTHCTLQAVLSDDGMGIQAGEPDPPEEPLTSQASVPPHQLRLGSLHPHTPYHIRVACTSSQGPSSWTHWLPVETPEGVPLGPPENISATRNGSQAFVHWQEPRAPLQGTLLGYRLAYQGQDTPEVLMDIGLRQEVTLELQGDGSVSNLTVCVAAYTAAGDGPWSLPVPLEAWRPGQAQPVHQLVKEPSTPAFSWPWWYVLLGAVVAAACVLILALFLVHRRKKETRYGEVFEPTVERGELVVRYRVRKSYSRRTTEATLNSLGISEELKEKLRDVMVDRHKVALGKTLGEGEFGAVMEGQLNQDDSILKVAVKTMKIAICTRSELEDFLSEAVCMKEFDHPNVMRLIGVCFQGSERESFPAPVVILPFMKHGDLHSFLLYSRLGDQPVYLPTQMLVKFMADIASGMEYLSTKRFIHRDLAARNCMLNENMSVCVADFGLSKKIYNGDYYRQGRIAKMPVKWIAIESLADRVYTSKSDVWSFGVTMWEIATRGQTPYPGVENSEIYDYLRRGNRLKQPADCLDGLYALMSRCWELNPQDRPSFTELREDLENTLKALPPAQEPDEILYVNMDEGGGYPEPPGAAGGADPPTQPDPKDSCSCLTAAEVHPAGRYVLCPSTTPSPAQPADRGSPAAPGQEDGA
Experimental: (§1) Kinase activity and compound inhibition were investigated using the ^33P-Phosphoryl transfer radiometric kinase assay, performed using the KinaseProfiler™ service of Eurofins Pharma Discovery Services UK Limited. Dose-response experiments were performed using nine compound concentrations in a 96-well microtiter plate. For each assay, all compounds were prepared to a 50× final assay concentration (50 μM) in 100% DMSO, then diluted in a half-log series, with the final top concentration at 1 μM. This working stock of the compound was added to the assay well as the first component in the reaction, followed by the remaining components as detailed in the following assay protocols below. The positive control wells (100% kinase activity) contain all components of the reaction including 2% DMSO (control for solvent effects), except the compound of interest. Blank wells contain all components of the reaction, with the reference inhibitor, staurosporine. This reference compound was used to abolish kinase activity and generated the 0% kinase activity base-line. IC50 values were calculated by nonlinear regression analysis using the sigmoidal dose-response (variable slope) curve fit on XLFit version 5.3 (ID Business Solutions).
(§2) Kinase activity and compound inhibition were also investigated using the HTRF® KinEase assay (Cisbio Cat #62TKOPEB) per manufacturer's instructions. In short, compounds were delivered in 300 nL volumes at 10 different concentrations in DMSO (3% final) to empty 384-well assay plates (Corning cat #3824). A mixture of enzyme, 1 μM biotinylated peptide substrate, and buffer in 10 μL volume was added. The assay was started upon the addition of ATP (at Km). The 10 μL reaction was incubated at room temperature. The reaction was stopped upon the addition of detection buffer containing streptavidin-XL665 (5 μL) and TK antibody-Eu3+(5 μL). After a 60 min incubation at room temperature, the fluorescence at 665 nm and 620 nm was read on an Envision microplate reader (Perkin Elmer).
(§3) Kinase activity normalized to DMSO (100% activity) and reference compound at 1 μM and (0% activity) was calculated using the fluorescence ratio […]. IC50 values were calculated by nonlinear regression analysis using a 4-parameter logistic curve fit in ActivityBase XE (IDBS).
(§4) Example A-1: Human Axl (residues H473-A894 with Q764R, 161 nM) was incubated with 8 mM MOPS pH 7.0, 0.2 mM EDTA, 250 μM KKSRGDYMTMQIG (SEQ ID NO:1), 10 mM magnesium acetate and 10 μM [γ-^33P-ATP]. The reaction was initiated by the addition of the Mg/ATP mix. After incubation for 40 minutes at room temperature, the reaction was stopped by the addition of phosphoric acid to a concentration of 0.5%. A reaction aliquot of 10 μL was then spotted onto a P30 filtermat and washed four times for 4 minutes in 0.425% phosphoric acid and once in methanol prior to drying and scintillation counting. Incorporated ^33P was measured using the Wallac Microbeta scintillation counter (Perkin Elmer).
Example A-2: Human AXL (residues 464-885; CarnaBio, 1 ng/well) was also incubated with enzymatic buffer (Cisbio) supplemented with 5 mM MgCl2, 1 mM DTT, and Supplemental Enzymatic Buffer (SEB; Cisbio). The mixture was added to the pre-plated compounds. The reaction was initiated upon addition of ATP at Km (1.0 μM). The reaction was incubated at room temperature for 50 min and stopped upon the addition of SA-XL665 and TK-antibody both diluted in EDTA-containing kinase detection buffer (Cisbio). The kinase activity was calculated as stated above and the IC50 values were reported.

Human KDR = molecular target: T2, Human KDR (Homo sapiens, UniProt P35968); experiment: Human KDR kinase assay (33P radiometric / HTRF KinEase); assay type: biochemical; settings: protocols of Examples B-1 and/or B-2
T2 construct: Human KDR (residues K790-V1356, 55 nM); purchased Eurofins Pharma Discovery Services UK Limited (KinaseProfiler, B-1) and/or CarnaBio (B-2)
Experimental: as §1, §2, §3
as §4, with “B-1:” for “A-1:”, “KDR” for “Axl”, “K790-V1356, 55” for “H473-A894 with Q764R, 161”, “0.33 mg/mL myelin basic protein,” for “250 μM KKSRGDYMTMQIG (SEQ ID NO:1),”, “acetate,” for “acetate”
Example B-2: Human KDR (residues 790-1356; CarnaBio, 0.1 ng/well) was also incubated with enzymatic buffer (Cisbio) supplemented with 5 mM MgCl2, 1 mM MnCl2, and 1 mM DTT. The mixture was added to the pre-plated compounds. The reaction was initiated upon addition of ATP at Km (4.0 μM). The reaction was incubated at room temperature for 40 min and stopped upon the addition of SA-XL665 and TK-antibody both diluted in EDTA-containing kinase detection buffer (Cisbio). The kinase activity was calculated as stated above and the IC50 values were reported.

T2 sequence (P35968 790-1356): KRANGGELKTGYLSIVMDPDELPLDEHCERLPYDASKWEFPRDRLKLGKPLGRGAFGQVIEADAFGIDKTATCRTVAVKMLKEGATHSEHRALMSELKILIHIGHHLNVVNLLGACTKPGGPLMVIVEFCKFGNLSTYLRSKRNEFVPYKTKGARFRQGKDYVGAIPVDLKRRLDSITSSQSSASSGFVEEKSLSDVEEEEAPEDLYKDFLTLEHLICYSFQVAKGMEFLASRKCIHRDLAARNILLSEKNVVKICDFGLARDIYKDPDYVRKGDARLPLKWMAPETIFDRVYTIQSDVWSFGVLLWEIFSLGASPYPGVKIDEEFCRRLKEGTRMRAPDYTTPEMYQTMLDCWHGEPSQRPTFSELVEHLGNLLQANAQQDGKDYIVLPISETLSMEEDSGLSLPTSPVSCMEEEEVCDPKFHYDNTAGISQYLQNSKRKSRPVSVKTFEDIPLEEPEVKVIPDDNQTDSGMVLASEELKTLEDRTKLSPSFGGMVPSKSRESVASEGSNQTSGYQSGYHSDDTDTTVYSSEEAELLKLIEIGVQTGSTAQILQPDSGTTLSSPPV

Structure (SMILES)	IC50 (Human Axl) [nM]	IC50 (Human KDR) [nM]
COc1cc2nccc(Oc3ccc(NC(=O)c4c(C)nc(C)c(C(N)=O)c4O)cc3)c2nc1OC [Compound 85, 3-N-[4-[(6,7-Dimethoxy-1,5-naphthyridin-4-yl)oxy]phenyl]-4-hydroxy-2,6-dimethylpyridine-3,5-dicarboxamide]	> 300	> 300
COc1cc2nccc(Oc3ccc(NC(=O)c4c(C)nc(C)c(C(N)=O)c4O)cc3F)c2nc1OC [Compound 84, 3-N-[4-[(6,7-Dimethoxy-1,5-naphthyridin-4-yl)oxy]-3-fluorophenyl]-4-hydroxy-2,6-dimethylpyridine-3,5-dicarboxamide]	> 300	> 300
COc1cc2nccc(Oc3ccc(NC(=O)c4cnc(C)c(/C=C/CC(C)C)c4O)cc3F)c2cc1OC [Compound 29, N-[4-(6,7-Dimethoxyquinolin-4-yl)oxy-3-fluorophenyl]-4-hydroxy-6-methyl-5-[(E)-4-methylpent-1-enyl]pyridine-3-carboxamide]	≤ 100	≤ 100
COc1cc2nccc(Oc3ccc(NC(=O)c4c5n(c(C)c(C6=CCOCC6)c4=O)CCOC5)cc3F)c2nc1OC [Compound 79, 7-(3,6-Dihydro-2H-pyran-4-yl)-N-[4-[(6,7-dimethoxy-1,5-naphthyridin-4-yl)oxy]-3-fluorophenyl]-6-methyl-8-oxo-3,4-dihydro-1H-pyrido[2,1-c][1,4]oxazine-9-carboxamide]	≤ 100	> 300
COc1cc2nccc(Oc3ccc(NC(=O)c4c(C)nc(C)c(C5=CCCC5)c4O)cc3F)c2nc1OC [Compound 1-2, 5-(Cyclopenten-1-yl)-N-[4-[(6,7-dimethoxy-1,5-naphthyridin-4-yl)oxy]-3-fluorophenyl]-4-hydroxy-2,6-dimethylpyridine-3-carboxamide hydrochloride]	≤ 100	≤ 100
COc1cc2nccc(Oc3ccc(NC(=O)c4c(C)cc(C)n(C5=CCCC5)c4=O)cc3F)c2nc1OC [Compound 14, 1-(Cyclopenten-1-yl)-N-[4-[(6,7-dimethoxy-1,5-naphthyridin-4-yl)oxy]-3-fluorophenyl]-4,6-dimethyl-2-oxopyridine-3-carboxamide]	≤ 100	≤ 100
COc1cc2nccc(Oc3ccc(NC(=O)c4c(C)ccn(C(C)C)c4=O)cc3)c2nc1OC [Compound 39, N-[4-[(6,7-Dimethoxy-1,5-naphthyridin-4-yl)oxy]phenyl]-4-methyl-2-oxo-1-propan-2-ylpyridine-3-carboxamide]	> 300	> 300

Now from value to molecule:

IC50 (Human Axl) [nM]	IC50 (Human KDR) [nM]	Structure (SMILES)
≤ 100	≤ 100	COCCOc1cc2nccc(Oc3ccc(NC(=O)c4c(C)nc(C)c(C5=CCCC5)c4O)cc3F)c2nc1OC [Compound 41, 5-(Cyclopenten-1-yl)-N-[3-fluoro-4-[[6-methoxy-7-(2-methoxyethoxy)-1,5-naphthyridin-4-yl]oxy]phenyl]-4-hydroxy-2,6-dimethylpyridine-3-carboxamide]
≤ 100	> 300	COc1cc2nccc(Oc3ccc(NC(=O)c4c(C)n(C)c(C)c(/C=C/C5CC5)c4=O)cc3F)c2nc1OC [Compound 50, 5-[(E)-2-Cyclopropylethenyl]-N-[4-[(6,7-dimethoxy-1,5-naphthyridin-4-yl)oxy]-3-fluorophenyl]-1,2,6-trimethyl-4-oxopyridine-3-carboxamide]
≤ 100	≤ 100	COc1cc2nccc(Oc3ccc(NC(=O)c4c5n(c(C)c(C6=CCCCC6)c4=O)CCOC5)cc3F)c2nc1OC [Compound 80, 7-(Cyclohexen-1-yl)-N-[4-[(6,7-dimethoxy-1,5-naphthyridin-4-yl)oxy]-3-fluorophenyl]-6-methyl-8-oxo-3,4-dihydro-1H-pyrido[2,1-c][1,4]oxazine-9-carboxamide]
≤ 100	≤ 100	COc1cc2nccc(Oc3ccc(NC(=O)c4cn(C)c(C)c(C5=CCCC5)c4=O)cc3F)c2nc1OC [Compound 1, 5-(Cyclopenten-1-yl)-N-[4-[(6,7-dimethoxy-1,5-naphthyridin-4-yl)oxy]-3-fluorophenyl]-1,6-dimethyl-4-oxopyridine-3-carboxamide]
